Experimental findings from article PMC11995724, “Antibiotic target discovery by integrated phenotypic and activity-based profiling of electrophilic fragments” (Cell chemical biology, 2025) are described below.

Each structure is given as a SMILES string.

This series can be described thus: in vitro. Conditions: human, hek293t cells.
For the compound `N#CC(=Cc1ccc(O)cc1)C(=O)NCc1ccco1` [9-N10, 2-cyano-N-[(furan-2-yl)methyl]-3-(4-hydroxyphenyl)prop-2-enamide], the viability (commonly a read-out of living cells in per cent, often relative to untreated cells) at 48 h, 25 µM was 103%.

As to `N#CC(=Cc1ccc2ccccc2c1)C(=O)NCc1ccccc1` [9-N11, N-benzyl-2-cyano-3-(naphthalen-2-yl)prop-2-enamide], the viability at 48 h, 25 µM is 123%.

On to `COc1cc(C=C(C#N)C(=O)NC(C)C)sn1` [9-N12, 2-cyano-3-(3-methoxy-1,2-thiazol-5-yl)-N-(propan-2-yl)prop-2-enamide], for which the viability at 48 h, 25 µM amounted to 115%.

As to `Cc1ccc(C)c(C=C(C#N)C(=O)Nc2nccs2)c1` [9-N13, 2-cyano-3-(2,5-dimethylphenyl)-N-(1,3-thiazol-2-yl)prop-2-enamide], the viability at 48 h, 25 µM came to 126%.

Consider `CCCNC(=O)C(C#N)=Cc1cnc2c(C)cccn12` [9-N14, 2-cyano-3-{8-methylimidazo[1,2-a]pyridin-3-yl}-N-propylprop-2-enamide], for which the viability at 48 h, 25 µM was found to be 120%.

As for `Cc1c(C=C(C#N)C(=O)Nc2cnc3ccccc3c2)cc(C#N)n1C` [9-N15, 2-cyano-3-(5-cyano-1,2-dimethyl-1H-pyrrol-3-yl)-N-(quinolin-3-yl)prop-2-enamide], the viability at 48 h, 25 µM is 111%.

In the case of `COc1ccc(-n2c(C)cc(C=C(C#N)C(=O)N(C)OC)c2C)cc1` [9-N16, 2-cyano-N-methoxy-3-[1-(4-methoxyphenyl)-2,5-dimethyl-1H-pyrrol-3-yl]-N-methylprop-2-enamide], the viability at 48 h, 25 µM is 88.4%.

In the case of `N#CC(=Cc1cccc(F)c1)C(=O)Nc1ccc(SC(F)F)cc1` [9-N17, 2-cyano-N-{4-[(difluoromethyl)sulfanyl]phenyl}-3-(3-fluorophenyl)prop-2-enamide], the viability at 48 h, 25 µM came out at 103%.

Turning to `N#CC(=Cc1csc(-c2ccsc2)n1)C(=O)NC1CC1` [9-N18, 2-cyano-N-cyclopropyl-3-[2-(thiophen-3-yl)-1,3-thiazol-4-yl]prop-2-enamide], the viability at 48 h, 25 µM came to 110%.

Take `Cc1cn2c(C=C(C#N)C(=O)Nc3c(C)cccc3C)c(C)nc2s1` [9-N19, 2-cyano-3-{2,6-dimethylimidazo[2,1-b][1,3]thiazol-5-yl}-N-(2,6-dimethylphenyl)prop-2-enamide]: the viability at 48 h, 25 µM is 94.4%.

Turning to `CC(C)Oc1ccccc1C=C(C#N)C(=O)Nc1ccccc1Cl` [9-N20, N-(2-chlorophenyl)-2-cyano-3-[2-(propan-2-yloxy)phenyl]prop-2-enamide], the viability at 48 h, 25 µM was 104%.

Turning to `Cc1ccc(C=C(C#N)C(=O)Nc2c(Cl)cccc2Cl)o1` [9-N21, 2-cyano-N-(2,6-dichlorophenyl)-3-(5-methylfuran-2-yl)prop-2-enamide], the viability at 48 h, 25 µM worked out at 108%.

On to `N#C/C(C(=O)Nc1ccc(C(F)(F)F)cc1)=C(/O)C1CC1` [9-N22, (2Z)-2-cyano-3-cyclopropyl-3-hydroxy-N-[4-(trifluoromethyl)phenyl]prop-2-enamide], for which the viability at 48 h, 25 µM was found to be 82.6%.

As for `N#CC(=Cc1cccc2ccccc12)C(=O)NC1CC1` [9-O03, 2-cyano-N-cyclopropyl-3-(naphthalen-1-yl)prop-2-enamide], the viability at 48 h, 25 µM came to 116%.

With `CN(C)c1ccc(C=C(C#N)C(N)=O)cc1` [9-O04, 2-cyano-3-[4-(dimethylamino)phenyl]prop-2-enamide], the viability at 48 h, 25 µM is 118%.

As for `N#CC(=Cc1ccsc1)C(=O)Nc1ccccc1Cl` [9-O05, N-(2-chlorophenyl)-2-cyano-3-(thiophen-3-yl)prop-2-enamide], the viability at 48 h, 25 µM came out at 150%.

Consider `CCNC(=O)C(C#N)=Cc1c(N2CCOCC2)nc2ccccn2c1=O` [9-O06, 2-cyano-N-ethyl-3-[2-(morpholin-4-yl)-4-oxo-4H-pyrido[1,2-a]pyrimidin-3-yl]prop-2-enamide], for which the viability at 48 h, 25 µM worked out at 137%.

`CCCCNC(=O)C(C#N)=Cc1ccc(Cl)cc1Cl` [9-O07, N-butyl-2-cyano-3-(2,4-dichlorophenyl)prop-2-enamide]: the viability at 48 h, 25 µM stood at 69%.

Consider `N#CC(=Cc1cc2ccccc2o1)C(=O)NCc1ccco1` [9-O08, 3-(1-benzofuran-2-yl)-2-cyano-N-[(furan-2-yl)methyl]prop-2-enamide], for which the viability at 48 h, 25 µM stood at 114%.

As to `CCCCNC(=O)C(C#N)=Cc1c(Cl)nc2ccccn12` [9-O09, N-butyl-3-{2-chloroimidazo[1,2-a]pyridin-3-yl}-2-cyanoprop-2-enamide], the viability at 48 h, 25 µM is 129%.

As for `N#CC(=Cc1ccc(N2CCOCC2)cc1)C(=O)NCC1CCCO1` (stereo not drawn) [9-O10, 2-cyano-3-[4-(morpholin-4-yl)phenyl]-N-[(oxolan-2-yl)methyl]prop-2-enamide], the viability at 48 h, 25 µM is 120%.

As to `Cc1ccc(C=C(C#N)C(=O)NC(C)C)s1` [9-O11, 2-cyano-3-(5-methylthiophen-2-yl)-N-(propan-2-yl)prop-2-enamide], the viability at 48 h, 25 µM turned out to be 139%.

For `COc1ccc(C=C(C#N)C(=O)Nc2ccc(C)cc2)cc1O` [9-O12, 2-cyano-3-(3-hydroxy-4-methoxyphenyl)-N-(4-methylphenyl)prop-2-enamide], the viability at 48 h, 25 µM turned out to be 109%.

Turning to `CC1=C(C#N)C(=O)N(C2CCS(=O)(=O)C2)C(=O)C1=Cc1ccco1` (stereo not drawn) [9-O13, 1-(1,1-dioxo-1lambda6-thiolan-3-yl)-5-[(furan-2-yl)methylidene]-4-methyl-2,6-dioxo-1,2,5,6-tetrahydropyridine-3-carbonitrile], the viability at 48 h, 25 µM stood at 99%.

In the case of `N#CC(=Cc1cnn(Cc2ccccc2)c1)C(=O)NC1CCCC1` [9-O14, 3-(1-benzyl-1H-pyrazol-4-yl)-2-cyano-N-cyclopentylprop-2-enamide], the viability at 48 h, 25 µM was 80.2%.

For `CCc1cccc(CC)c1NC(=O)C(C#N)=Cc1ccc(C#N)cc1` [9-O15, 2-cyano-3-(4-cyanophenyl)-N-(2,6-diethylphenyl)prop-2-enamide], the viability at 48 h, 25 µM was 36.5%.

`N#CC(=Cc1cccc(O)c1)C(=O)Nc1ccccc1C(=O)O` [9-O16, 2-[2-cyano-3-(3-hydroxyphenyl)prop-2-enamido]benzoic acid]: the viability at 48 h, 25 µM was found to be 125%.

Regarding `N#CC(=Cc1ccc(C#N)cc1)C(=O)Nc1ccccc1Cl` [9-O17, N-(2-chlorophenyl)-2-cyano-3-(4-cyanophenyl)prop-2-enamide], the viability at 48 h, 25 µM was found to be 131%.

Regarding `Cc1cccc(NC(=O)C(C#N)=Cc2cnc3ccc(C#N)cn23)c1` [9-O18, 2-cyano-3-{6-cyanoimidazo[1,2-a]pyridin-3-yl}-N-(3-methylphenyl)prop-2-enamide], the viability at 48 h, 25 µM was 132%.

Take `COc1cc(C=C(C#N)C(=O)NC2CC2)cc(OC)c1O` [9-O19, 2-cyano-N-cyclopropyl-3-(4-hydroxy-3,5-dimethoxyphenyl)prop-2-enamide]: the viability at 48 h, 25 µM amounted to 124%.

Consider `N#CC(=Cc1ccccc1[N+](=O)[O-])C(=O)Nc1ccc2c(c1)OCCO2` [9-O20, 2-cyano-N-(2,3-dihydro-1,4-benzodioxin-6-yl)-3-(2-nitrophenyl)prop-2-enamide], for which the viability at 48 h, 25 µM is 108%.

With `Cc1ccc(-n2c(C)cc(C=C(C#N)C(=O)N3CCCCC3)c2C)cc1` [9-O21, 3-[2,5-dimethyl-1-(4-methylphenyl)-1H-pyrrol-3-yl]-2-(piperidine-1-carbonyl)prop-2-enenitrile], the viability at 48 h, 25 µM was 87.8%.

With `Cc1ccc(C)c(C=C(C#N)C(=O)NC(C)C)c1` [9-O22, 2-cyano-3-(2,5-dimethylphenyl)-N-(propan-2-yl)prop-2-enamide], the viability at 48 h, 25 µM was 125%.

For the compound `N#CC(=Cc1cccc(F)c1)C(=O)Nc1cc(Cl)ccc1Cl` [9-P03, 2-cyano-N-(2,5-dichlorophenyl)-3-(3-fluorophenyl)prop-2-enamide], the viability at 48 h, 25 µM was 109%.

Turning to `Cc1cc(C=C(C#N)C(=O)N2CC[C@H](O)C2)c(C)n1CC1CCCO1` (stereo partly drawn) [9-P04, 3-{2,5-dimethyl-1-[(oxolan-2-yl)methyl]-1H-pyrrol-3-yl}-2-[(3S)-3-hydroxypyrrolidine-1-carbonyl]prop-2-enenitrile], the viability at 48 h, 25 µM came to 131%.

In the case of `CCOc1ccccc1NC(=O)C(C#N)=Cc1ccc2c(c1)OCO2` [9-P05, 3-(1,3-dioxaindan-5-yl)-2-cyano-N-(2-ethoxyphenyl)prop-2-enamide], the viability at 48 h, 25 µM was 136%.

`N#CC(=Cc1c(F)cccc1Cl)C(=O)Nc1ccc(C(=O)O)cc1` [9-P06, 4-[3-(2-chloro-6-fluorophenyl)-2-cyanoprop-2-enamido]benzoic acid]: the viability at 48 h, 25 µM came to 142%.

Consider `C=CCNC(=O)C(C#N)=Cc1sccc1C` [9-P07, 2-cyano-3-(3-methylthiophen-2-yl)-N-(prop-2-en-1-yl)prop-2-enamide], for which the viability at 48 h, 25 µM came to 117%.

As for `COc1cc(C=C(C#N)C(=O)Nc2ccccn2)ccc1O` [9-P08, 2-cyano-3-(4-hydroxy-3-methoxyphenyl)-N-(pyridin-2-yl)prop-2-enamide], the viability at 48 h, 25 µM turned out to be 124%.

Turning to `CCN1C(=O)C(=Cc2ccc(-c3ccc(F)cc3)o2)C(C)=C(C#N)C1=O` [9-P09, 1-ethyl-5-{[5-(4-fluorophenyl)furan-2-yl]methylidene}-4-methyl-2,6-dioxo-1,2,5,6-tetrahydropyridine-3-carbonitrile], the viability at 48 h, 25 µM is 127%.

As to `Cc1ccc(C=C(C#N)C(=O)Nc2nccs2)o1` [9-P10, 2-cyano-3-(5-methylfuran-2-yl)-N-(1,3-thiazol-2-yl)prop-2-enamide], the viability at 48 h, 25 µM came to 126%.

As to `Cc1ccccc1NC(=O)C(C#N)=Cc1cc2c(cc1[N+](=O)[O-])OCO2` [9-P11, 2-cyano-N-(2-methylphenyl)-3-(6-nitro-1,3-dioxaindan-5-yl)prop-2-enamide], the viability at 48 h, 25 µM worked out at 120%.

Regarding `COC(=O)c1ccc(C=C(C#N)C(=O)NC(C)C)n1C` [9-P12, methyl 5-{2-cyano-2-[(propan-2-yl)carbamoyl]eth-1-en-1-yl}-1-methyl-1H-pyrrole-2-carboxylate], the viability at 48 h, 25 µM came out at 115%.

For the compound `CCCCNC(=O)C(C#N)=Cc1ccc(F)cc1` [9-P13, N-butyl-2-cyano-3-(4-fluorophenyl)prop-2-enamide], the viability at 48 h, 25 µM amounted to 124%.

For the compound `Cc1ccc(C=C(C#N)C(=O)Nc2ccc(C(=O)N(C)C)cc2)o1` [9-P14, 4-[2-cyano-3-(5-methylfuran-2-yl)prop-2-enamido]-N,N-dimethylbenzamide], the viability at 48 h, 25 µM turned out to be 119%.
